Experiments:
MCF7 [1] = assay: Cytotoxicity against human MCF7 cells expressing VEGFR2 and wild type BRAF measured after 48 hrs by sulforhodamine B assay; format: functional, cell-based; details: MCF7, 48 h
HCT-15 = assay: Growth inhibition of human HCT15 cells at 10 uM incubated for 48 hrs by sulforhodamine B assay relative to control; format: functional; details: HCT-15, 48 h, read-out: GI
CCRF-CEM = assay: Growth inhibition of human CCRF-CEM cells at 10 uM incubated for 48 hrs by sulforhodamine B assay relative to control; format: functional; details: read-out: GI
MCF7 [2] = assay: Growth inhibition of human MCF7 cells at 10 uM incubated for 48 hrs by sulforhodamine B assay relative to control; format: functional; details: MCF7, 48 h, read-out: GI
MOLT-4 = assay: Growth inhibition of human MOLT4 cells at 10 uM incubated for 48 hrs by sulforhodamine B assay relative to control; format: functional; details: MOLT-4, 48 h, read-out: GI
UO-31 = assay: Growth inhibition of human UO31 cells at 10 uM incubated for 48 hrs by sulforhodamine B assay relative to control; format: functional; details: UO-31, 48 h, read-out: GI
MDA-MB-468 = assay: Growth inhibition of human MDA-MB-468 cells at 10 uM incubated for 48 hrs by sulforhodamine B assay relative to control; format: functional; details: MDA-MB-468, 48 h, read-out: GI
[3] = target: Vascular endothelial growth factor receptor 2 (Homo sapiens, UniProt P35968); assay: Inhibition of human N-terminal GST tagged VEGFR-2 expressed in baculovirus infected Sf9 cells using poly (Glu,Tyr) 4:1 as substrate in presence of ATP by Kinase-Glo luminescence assay
MCF7 [4] = assay: Inhibition of VEGFR2 level in human MCF7 cells at 10 uM measured after 48 hrs by ELISA relative to control; format: functional; details: MCF7, 48 h
UACC-257 = assay: Growth inhibition of human UACC257 cells at 10 uM incubated for 48 hrs by sulforhodamine B assay relative to control; format: functional; details: UACC-257, 48 h, read-out: GI
UACC-62 = assay: Growth inhibition of human UACC62 cells at 10 uM incubated for 48 hrs by sulforhodamine B assay relative to control; format: functional; details: UACC-62, 48 h, read-out: GI
OVCAR-8 = assay: Growth inhibition of human OVCAR8 cells at 10 uM incubated for 48 hrs by sulforhodamine B assay relative to control; format: functional; details: OVCAR-8, 48 h, read-out: GI
SF-295 = assay: Growth inhibition of human SF295 cells at 10 uM incubated for 48 hrs by sulforhodamine B assay relative to control; format: functional; details: SF-295, 48 h, read-out: GI
PC-3 = assay: Growth inhibition of human PC3 cells at 10 uM incubated for 48 hrs by sulforhodamine B assay relative to control; format: functional; details: PC-3, 48 h, read-out: GI
NCI-H522 = assay: Growth inhibition of human NCI-H522 cells at 10 uM incubated for 48 hrs by sulforhodamine B assay relative to control; format: functional; details: NCI-H522, 48 h, read-out: GI
SK-MEL-5 = assay: Growth inhibition of human SK-MEL-5 cells at 10 uM incubated for 48 hrs by sulforhodamine B assay relative to control; format: functional; details: SK-MEL-5, 48 h, read-out: GI
HT-29 = assay: Growth inhibition of human HT-29 cells at 10 uM incubated for 48 hrs by sulforhodamine B assay relative to control; format: functional; details: HT-29, 48 h, read-out: GI
SR = assay: Growth inhibition of human SR cells at 10 uM incubated for 48 hrs by sulforhodamine B assay relative to control; format: functional; details: read-out: GI
BT-549 = assay: Growth inhibition of human BT549 cells at 10 uM incubated for 48 hrs by sulforhodamine B assay relative to control; format: functional; details: BT-549, 48 h, read-out: GI
NCI-H23 = assay: Growth inhibition of human NCI-H23 cells at 10 uM incubated for 48 hrs by sulforhodamine B assay relative to control; format: functional; details: NCI-H23, 48 h, read-out: GI
SK-MEL-28 = assay: Growth inhibition of human SK-MEL-28 cells at 10 uM incubated for 48 hrs by sulforhodamine B assay relative to control; format: functional; details: SK-MEL-28, 48 h, read-out: GI
HCT-116 = assay: Growth inhibition of human HCT116 cells at 10 uM incubated for 48 hrs by sulforhodamine B assay relative to control; format: functional; details: HCT-116, 48 h, read-out: GI
ACHN = assay: Growth inhibition of human ACHN cells at 10 uM incubated for 48 hrs by sulforhodamine B assay relative to control; format: functional; details: read-out: GI
T47D [5] = assay: Cytotoxicity against human T47D cells expressing wild type BRAF measured after 48 hrs by sulforhodamine B assay; format: functional, cell-based
OVCAR-4 = assay: Growth inhibition of human OVCAR4 cells at 10 uM incubated for 48 hrs by sulforhodamine B assay relative to control; format: functional; details: OVCAR-4, 48 h, read-out: GI
A498 = assay: Growth inhibition of human A498 cells at 10 uM incubated for 48 hrs by sulforhodamine B assay relative to control; format: functional; details: A498, 48 h, read-out: GI
SF-539 = assay: Growth inhibition of human SF539 cells at 10 uM incubated for 48 hrs by sulforhodamine B assay relative to control; format: functional; details: SF-539, 48 h, read-out: GI
MDA-MB-231 = assay: Growth inhibition of human MDA-MB-231 cells at 10 uM incubated for 48 hrs by sulforhodamine B assay relative to control; format: functional; details: MDA-MB-231, 48 h, read-out: GI
M14 = assay: Growth inhibition of human M14 cells at 10 uM incubated for 48 hrs by sulforhodamine B assay relative to control; format: functional; details: M14, 48 h, read-out: GI
DU-145 = assay: Growth inhibition of human DU145 cells at 10 uM incubated for 48 hrs by sulforhodamine B assay relative to control; format: functional; details: DU-145, 48 h, read-out: GI
EKVX = assay: Growth inhibition of human EKVX cells at 10 uM incubated for 48 hrs by sulforhodamine B assay relative to control; format: functional; details: read-out: GI
SN12C = assay: Growth inhibition of human SN12C cells at 10 uM incubated for 48 hrs by sulforhodamine B assay relative to control; format: functional; details: read-out: GI
A549 = assay: Growth inhibition of human A549/ATCC cells at 10 uM incubated for 48 hrs by sulforhodamine B assay relative to control; format: functional; details: A549, 48 h, read-out: GI
RPMI-8226 = assay: Growth inhibition of human RPMI8226 cells at 10 uM incubated for 48 hrs by sulforhodamine B assay relative to control; format: functional; details: RPMI-8226, 48 h, read-out: GI
K562 = assay: Growth inhibition of human K562 cells at 10 uM incubated for 48 hrs by sulforhodamine B assay relative to control; format: functional; details: K562, 48 h, read-out: GI
NCI-H460 = assay: Growth inhibition of human NCI-H460 cells at 10 uM incubated for 48 hrs by sulforhodamine B assay relative to control; format: functional; details: NCI-H460, 48 h, read-out: GI
IGROV-1 = assay: Growth inhibition of human IGROV1 cells at 10 uM incubated for 48 hrs by sulforhodamine B assay relative to control; format: functional; details: IGROV-1, 48 h, read-out: GI
CAKI-1 = assay: Growth inhibition of human Caki1 cells at 10 uM incubated for 48 hrs by sulforhodamine B assay relative to control; format: functional; details: CAKI-1, 48 h, read-out: GI
LOX IMVI = assay: Growth inhibition of human LOXIMVI cells at 10 uM incubated for 48 hrs by sulforhodamine B assay relative to control; format: functional; details: read-out: GI
T47D [6] = assay: Growth inhibition of human T47D cells at 10 uM incubated for 48 hrs by sulforhodamine B assay relative to control; format: functional; details: read-out: GI
MDA-MB-435 = assay: Growth inhibition of human MDA-MB-435 cells at 10 uM incubated for 48 hrs by sulforhodamine B assay relative to control; format: functional; details: MDA-MB-435, 48 h, read-out: GI
NCI/ADR-RES = assay: Growth inhibition of human NCI/ADR-RES cells at 10 uM incubated for 48 hrs by sulforhodamine B assay relative to control; format: functional; details: read-out: GI
NCI-H226 = assay: Growth inhibition of human NCI-H226 cells at 10 uM incubated for 48 hrs by sulforhodamine B assay relative to control; format: functional; details: NCI-H226, 48 h, read-out: GI
KM12 = assay: Growth inhibition of human KM12 cells at 10 uM incubated for 48 hrs by sulforhodamine B assay relative to control; format: functional; details: KM12, 48 h, read-out: GI
[7] = target: Serine/threonine-protein kinase B-raf (Homo sapiens, UniProt P15056); assay: Inhibition of human wild type BRAF by Kinase-Glo luminescence assay
Chain of Serine/threonine-protein kinase B-raf (P15056 whole entry): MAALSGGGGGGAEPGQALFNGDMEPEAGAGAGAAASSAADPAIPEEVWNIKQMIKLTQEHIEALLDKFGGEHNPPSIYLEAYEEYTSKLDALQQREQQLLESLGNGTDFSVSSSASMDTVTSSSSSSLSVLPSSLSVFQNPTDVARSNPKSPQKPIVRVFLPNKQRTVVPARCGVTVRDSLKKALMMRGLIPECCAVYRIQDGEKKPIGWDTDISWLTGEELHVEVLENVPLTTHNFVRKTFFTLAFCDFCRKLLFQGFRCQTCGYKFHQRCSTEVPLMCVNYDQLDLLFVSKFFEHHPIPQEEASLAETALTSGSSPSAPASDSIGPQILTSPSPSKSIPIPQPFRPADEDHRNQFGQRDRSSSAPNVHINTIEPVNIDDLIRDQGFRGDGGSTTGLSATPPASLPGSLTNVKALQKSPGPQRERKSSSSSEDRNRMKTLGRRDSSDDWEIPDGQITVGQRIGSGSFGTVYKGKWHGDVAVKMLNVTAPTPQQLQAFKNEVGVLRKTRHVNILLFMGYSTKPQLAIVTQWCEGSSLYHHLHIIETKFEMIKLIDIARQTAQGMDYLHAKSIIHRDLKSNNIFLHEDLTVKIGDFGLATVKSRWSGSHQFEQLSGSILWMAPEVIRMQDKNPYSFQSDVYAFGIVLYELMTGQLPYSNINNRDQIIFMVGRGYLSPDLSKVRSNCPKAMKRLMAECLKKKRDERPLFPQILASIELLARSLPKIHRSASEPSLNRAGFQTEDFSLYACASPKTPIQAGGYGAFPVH

Chain of Vascular endothelial growth factor receptor 2 (P35968 whole entry): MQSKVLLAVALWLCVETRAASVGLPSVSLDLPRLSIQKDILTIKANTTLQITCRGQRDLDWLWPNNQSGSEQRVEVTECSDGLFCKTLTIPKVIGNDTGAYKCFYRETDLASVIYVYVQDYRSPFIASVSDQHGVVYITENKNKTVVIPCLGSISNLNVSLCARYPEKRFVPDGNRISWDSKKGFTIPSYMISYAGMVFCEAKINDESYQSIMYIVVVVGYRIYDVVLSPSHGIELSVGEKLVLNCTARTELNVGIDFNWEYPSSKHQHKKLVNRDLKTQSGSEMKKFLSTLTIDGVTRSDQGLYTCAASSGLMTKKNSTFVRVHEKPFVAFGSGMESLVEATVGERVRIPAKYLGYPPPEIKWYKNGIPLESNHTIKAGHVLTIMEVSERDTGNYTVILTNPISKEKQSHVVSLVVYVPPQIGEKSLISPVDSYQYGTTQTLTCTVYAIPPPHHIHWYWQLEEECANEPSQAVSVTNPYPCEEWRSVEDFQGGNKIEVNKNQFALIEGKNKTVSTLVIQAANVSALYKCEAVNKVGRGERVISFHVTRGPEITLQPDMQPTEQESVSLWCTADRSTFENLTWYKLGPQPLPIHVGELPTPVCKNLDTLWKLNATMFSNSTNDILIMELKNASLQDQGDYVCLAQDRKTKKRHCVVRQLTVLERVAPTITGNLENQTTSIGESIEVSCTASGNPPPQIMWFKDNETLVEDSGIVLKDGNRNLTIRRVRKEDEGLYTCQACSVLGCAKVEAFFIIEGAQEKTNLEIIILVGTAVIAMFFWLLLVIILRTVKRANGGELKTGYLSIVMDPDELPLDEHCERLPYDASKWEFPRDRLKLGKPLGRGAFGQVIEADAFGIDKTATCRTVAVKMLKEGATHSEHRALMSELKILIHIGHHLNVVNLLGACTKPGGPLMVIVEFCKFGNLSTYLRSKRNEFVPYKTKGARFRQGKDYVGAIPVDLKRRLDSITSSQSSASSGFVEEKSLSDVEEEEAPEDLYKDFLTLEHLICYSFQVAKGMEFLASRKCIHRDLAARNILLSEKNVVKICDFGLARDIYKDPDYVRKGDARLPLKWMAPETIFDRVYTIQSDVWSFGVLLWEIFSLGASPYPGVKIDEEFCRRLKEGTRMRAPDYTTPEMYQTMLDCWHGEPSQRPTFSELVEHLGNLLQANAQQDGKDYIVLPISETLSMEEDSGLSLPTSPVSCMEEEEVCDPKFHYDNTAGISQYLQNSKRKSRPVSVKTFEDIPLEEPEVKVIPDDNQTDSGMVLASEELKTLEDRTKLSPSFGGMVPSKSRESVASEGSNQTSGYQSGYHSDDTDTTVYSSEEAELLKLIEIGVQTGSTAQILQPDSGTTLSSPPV

How did the IC50 (MCF7 [1]) turn out when CCOC(=O)c1ccc(Nc2ccnc(SCC(=O)c3ccc([N+](=O)[O-])cc3)n2)cc1 was run?
Its IC50 is 16.5 µM.

What about the inhibition of growth at 10 µM (HCT-15) of the same molecule?
The inhibition of growth at 10 µM was 13%.

What about the inhibition of growth at 10 µM (CCRF-CEM) of the same molecule?
The inhibition of growth at 10 µM was 49%.

And the inhibition of growth at 10 µM (MCF7 [2])?
The inhibition of growth at 10 µM was 22%.

And the inhibition of growth at 10 µM (MOLT-4)?
The inhibition of growth at 10 µM was 58%.

What about the inhibition of growth at 10 µM (UO-31) of the same molecule?
The inhibition of growth at 10 µM was 41%.

And the inhibition of growth at 10 µM (MDA-MB-468)?
Its inhibition of growth at 10 µM is 51%.

What about the IC50 [3] of the same molecule?
Its IC50 is 0.41 µM.

And the inhibition at 10 µM (MCF7 [4])?
Its inhibition at 10 µM is 80%.

And the inhibition of growth at 10 µM (UACC-257)?
Its inhibition of growth at 10 µM is 13%.

And the inhibition of growth at 10 µM (UACC-62)?
The inhibition of growth at 10 µM was 29%.

What about the inhibition of growth at 10 µM (OVCAR-8) of the same molecule?
The inhibition of growth at 10 µM was 31%.

And the inhibition of growth at 10 µM (SF-295)?
Its inhibition of growth at 10 µM is 28%.

And the inhibition of growth at 10 µM (PC-3)?
Its inhibition of growth at 10 µM is 33%.

And the inhibition of growth at 10 µM (NCI-H522)?
Its inhibition of growth at 10 µM is 37%.

What about the inhibition of growth at 10 µM (SK-MEL-5) of the same molecule?
The inhibition of growth at 10 µM was 41%.

What about the inhibition of growth at 10 µM (HT-29) of the same molecule?
The inhibition of growth at 10 µM was 19%.

And the inhibition of growth at 10 µM (SR)?
The inhibition of growth at 10 µM was 35%.

What about the inhibition of growth at 10 µM (BT-549) of the same molecule?
The inhibition of growth at 10 µM was 28%.

And the inhibition of growth at 10 µM (NCI-H23)?
The inhibition of growth at 10 µM was 13%.

What about the inhibition of growth at 10 µM (SK-MEL-28) of the same molecule?
Its inhibition of growth at 10 µM is 11%.

And the inhibition of growth at 10 µM (HCT-116)?
Its inhibition of growth at 10 µM is 26%.

And the inhibition of growth at 10 µM (ACHN)?
Its inhibition of growth at 10 µM is 15%.

And the IC50 (T47D [5])?
The IC50 was 8.09 µM.

What about the inhibition of growth at 10 µM (OVCAR-4) of the same molecule?
Its inhibition of growth at 10 µM is 20%.

And the inhibition of growth at 10 µM (A498)?
Its inhibition of growth at 10 µM is 61%.

And the inhibition of growth at 10 µM (SF-539)?
The inhibition of growth at 10 µM was 11%.

What about the inhibition of growth at 10 µM (MDA-MB-231) of the same molecule?
The inhibition of growth at 10 µM was 22%.

What about the inhibition of growth at 10 µM (M14) of the same molecule?
The inhibition of growth at 10 µM was 16%.

And the inhibition of growth at 10 µM (DU-145)?
Its inhibition of growth at 10 µM is 16%.

And the inhibition of growth at 10 µM (EKVX)?
The inhibition of growth at 10 µM was 27%.

And the inhibition of growth at 10 µM (SN12C)?
Its inhibition of growth at 10 µM is 17%.

And the inhibition of growth at 10 µM (A549)?
The inhibition of growth at 10 µM was 21%.

And the inhibition of growth at 10 µM (RPMI-8226)?
Its inhibition of growth at 10 µM is 54%.

And the inhibition of growth at 10 µM (K562)?
Its inhibition of growth at 10 µM is 37%.

What about the inhibition of growth at 10 µM (NCI-H460) of the same molecule?
Its inhibition of growth at 10 µM is 11%.

And the inhibition of growth at 10 µM (IGROV-1)?
Its inhibition of growth at 10 µM is 19%.

What about the inhibition of growth at 10 µM (CAKI-1) of the same molecule?
The inhibition of growth at 10 µM was 16%.

What about the inhibition of growth at 10 µM (LOX IMVI) of the same molecule?
The inhibition of growth at 10 µM was 10%.

And the inhibition of growth at 10 µM (T47D [6])?
The inhibition of growth at 10 µM was 60%.

And the inhibition of growth at 10 µM (MDA-MB-435)?
The inhibition of growth at 10 µM was 15%.

What about the inhibition of growth at 10 µM (NCI/ADR-RES) of the same molecule?
Its inhibition of growth at 10 µM is 27%.

What about the inhibition of growth at 10 µM (NCI-H226) of the same molecule?
The inhibition of growth at 10 µM was 16%.

What about the inhibition of growth at 10 µM (KM12) of the same molecule?
Its inhibition of growth at 10 µM is 21%.

And the IC50 [7]?
The IC50 was 0.22 µM.

— ChEMBL document CHEMBL4396916, “Novel potent substituted 4-amino-2-thiopyrimidines as dual VEGFR-2 and BRAF kinase inhibitors” (Eur J Med Chem, 2019)
